Measurements from paper PMC7201278, “A structural study of TatD from Staphylococcus aureus elucidates a putative DNA-binding mode of a Mg^2+-dependent nuclease” (IUCrJ, 2020).

Key:
SaTatD (SAV0491) = target: T1, SaTatD (SAV0491) (Staphylococcus aureus, UniProt W8U6D8); settings: two phosphates per monomer in active site, coordinated to two Ni2+; SeMet-derived protein; 2.4 M sodium malonate pH 7.0, 20°C
T1 construct: gene yabD

[1] = target: SaTatD (SAV0491), TatD-like DNase from Staphylococcus aureus (Mu50 strain) (Staphylococcus aureus (Mu50 strain)); assay: SEC; analytical gel filtration, Superdex 200 (10/300 GL), buffer A (20 mM Tris, 150 mM NaCl pH 8.0), 0.5 ml/min, gel-filtration standards; SaTatD at 20.0 mg/ml (high concentration)

stoichiometry N [1]	Molecule	X-ray crystal structure (SAD, 1.85 Å) (SaTatD (SAV0491))
–	O=P(O)(O)O [phosphate]	Polar interactions were also observed between the two phosphates and the surface residues of SaTatD
2	SaTatD (SAV0491), TatD-like DNase from Staphylococcus aureus (Mu50 strain) (enzyme)	–
